According to patent publication US20190307771A1, “METHODS AND COMPOSITIONS FOR THE TREATMENT OF CANCER AND METABOLIC DISEASES” (THE REGENTS OF THE UNIVERSITY OF CALIFORNIA, priority 2016, published 2019):
Entries after “also recorded” stand apart in the source; their conditions may differ. Like-named read-outs stand apart in the source and are kept apart here.

Tests used:
miR-22 [1] = details: published data, cited from earlier work
[2] = system: CYCLIN A2, HDAC1, HDAC4, SIRT1; assay: Protein levels in Huh7 liver cancer cells; details: liver Huh7 cells
[3] = system: HDAC1, HDAC4, SIRT1, cyclin A2 (CCNA2); assay: Western blot of protein deacetylases and cyclin A2 in HCT116 cells; assay type: cell-based; details: colon HCT116 cells; CDCA treatment or miR-22 mimic transfection
Procedure: HCT116 cells were transfected with either an miR-22 mimic or a scramble control, and 48 hours later the protein levels of HDAC4, SIRT1, and cyclin A2 were measured (FIG. 3B). The expression of all three proteins was reduced by treatment with the miR-22 mimic.
(§1) Western blot and immunoprecipitation were performed as described previously^22. Specific antibodies used included anti-NUR77, RARβ, SIRT1, β-actin, and IgG (Santa Cruz Biotechnology, Santa Cruz, Calif.), phospho-JNK1/2, total JNK1/2, cleaved caspase3, HDAC1 and HDAC4 (Cell Signaling Technology, Beverly, Mass.), and CCNA2 (Novus Biologicals, Littleton, Colo.). To detect protein acetylation of NUR77 and RARβ, cell lysates (500 μg) were incubated with anti-NUR77, RARβ, or IgG antibody (1 μg), precipitated by adding Dynabeads (30 μl, Life Technologies, Carlsbad, Calif.), and probed with anti-Acetyl-lysine antibody (Cell Signaling Technology, Beverly, Mass.). To study the interaction between RARβ and NUR77, whole-cell lysates were precipitated with anti-RARβ or NUR77 antibody followed by Western blot using anti-NUR77 or RARβ antibody.

miR-22 [4] = assay: miR-22 expression in HCT116 cells (qRT-PCR); assay type: cell-based; details: 24 hours, RA 10 μM, butyrate 5 mM, propionate 10 mM, valerate 10 mM, SAHA 5 μM
Procedure: To study the effect of RA and HDAC inhibitors on miR-22 expression, HCT116 cells were treated with RA, butyrate, propionate, valerate, and SAHA. The SCFA concentrations used were within physiologic ranges^35.
(§2) Total RNA was extracted with TRIzol Reagent (Invitrogen, Carlsbad, Calif.), and cDNA was generated using High Capacity RNA-to-cDNA Kit (Applied Biosystems, Carlsbad, Calif.). qRT-PCR was performed on ABI 7900HT Fast Real time PCR system using Power SYBR® Green PCR Master Mix (Applied Biosystems, Carlsbad, Calif.).

NUR77 and RARβ [5] = assay: Induction and localization of NUR77 and RARβ in HCT116 cells; assay type: cell-based; details: 48 hours, RA 10 μM, butyrate 5 mM, SAHA 5 μM, EGF 32 nM
Procedure: Proteins were immunoprecipitated by anti-NUR77 or anti-RARβ antibodies, or IgG, followed by Western blot using anti-RARβ or anti-NUR77 antibodies.
To study the effect of miR-22 in induction of cytosolic NUR77 by RA/butyrate, adenoviral-delivery of miR-22 inhibitors tagged with green fluorescence (adeno-miR-22 inhibitor-GFP, Applied Biological Materials Inc, Richond, BC) were used to infect HCT116 cells. At 48 hours post adenoviral infection, cells were treated with RA (10 μM) plus butyrate (5 mM) or DMSO for 24 hours. […] Cells were mounted in ProLong® Gold Antifade Reagent with DAPI (4′,6-diamidino-2-phenylindole, Life Technologies, Carlsbad, Calif.) and imaged under Keyence BZ-9000 microscope.

RARB and NUR77 genes = assay: ChIP-qPCR: HDAC recruitment and H3K9 acetylation at RARB and NUR77 genes in HCT116 cells; assay type: cell-based; details: RA 10 μM, butyrate 5 mM, SAHA 5 μM; for H3K9 acetylation of NUR77 and RARβ genes (ChIP-qPCR) / Recruitment of HDAC1, HDAC4, and SIRT1 to the regulatory region of NUR77 and RARβ (ChIP-qPCR): 24 hours
Procedure: Cell lysates were used for ChIP with antibodies specific for HDAC1, HDAC4, SIRT1, or acetylated H3K9, followed by qPCR using primers specific for the RARB and NUR77 genes. DMSO treated cells and IP using IgG were included as negative controls. […]inding was expressed relative to the IgG negative controls.
(§3) Chromatin immunoprecipitation (ChIP)-qPCR ChIP-qPCR was performed as described previously^21. Briefly, chromatin lysate was precleared before incubation with an anti-H3K9AC antibody (Millipore. Billerica, Mass.), anti-HDAC1 and anti-HDAC4 (Cell signaling technology, Beverly, Mass.) or anti-SIRT1 antibody (Santa Cruz Biotechnology, Santa Cruz, Calif.). IgG (Santa Cruz Biotechnology, Santa Cruz, Calif.) and RNA Polymerase II antibody (Millipore, Billerica, Mass.) were used as negative and positive controls, respectively. Samples were incubated with Dynase beads at 4° C. overnight followed by de-crosslinking and purification. DNA fragments generated served as templates for qPCR using Power SYBR1 Green PCR Master Mix.

[6] = system: HDAC1, HDAC4, SIRT1, cyclin A2 (CCNA2); assay: Western blot of protein deacetylases and cyclin A2 in HCT116 cells; assay type: cell-based; details: 24 hours, RA 10 μM, butyrate 5 mM, SAHA 5 μM
RARβ = assay: ChIP-qPCR: RARβ binding to DR5 motif upstream of RARβ and CYP26A1 genes; assay type: cell-based; details: HCT116 cells
Procedure: (§4) NUR77 and RARβ acetylation status was also studied because protein acetylation alters nuclear receptor activity^37. […] To study the effect of RA/butyrate in modulating NUR77 and RARβ transcriptional activity, ChIP-qPCR and RT-PCR were performed to determine receptor binding to transcriptional regulatory regions and mRNA levels of downstream targets, respectively.
as §3

NUR77 and RARβ [7] = assay: Immunoprecipitation/Western blot: protein acetylation of NUR77 and RARβ; assay type: cell-based; details: HCT116 cells; IP with anti-NUR77 or anti-RARβ, anti-acetyl lysine blot
Source text: FIG. 12A depicts the expression levels of proteins that were extracted from HCT116 cells and immunoprecipitated by anti-NUR77 and RARβ antibodies or IgG, followed by Western blot using an anti-acetyl lysine antibody. […] The mRNA levels of NUR77 target genes BRE as well as CCND2 and RARβ target genes RARβ and CYP26A1 in HCT116 cells are shown in FIG. 12C.
as §4, §1

NUR77 = assay: ChIP-qPCR and RT-PCR: NUR77 binding to BRE and CCND2 and their mRNA; assay type: cell-based; details: HCT116 cells
Procedure: as §4, §3

[8] = system: HCT116 colon cancer cells; assay: MTT cell viability assay in HCT116 cells; assay type: cell-based; details: RA 10 μM, butyrate 5 mM, SAHA 5 μM; for Cell viability (MTT assay): 24 hours; for Cell viability: 48 hours, propionate 10 mM, valerate 10 mM, vs. DMSO
Procedure: Cell viability was monitored by MTT assay.
HCT116 cells (American Type Culture Collection) were maintained in McCoy's 5a medium from Gibco (Life Technologies, Carlsbad, Calif.) with 10% FBS. Cells were plated (1×10^6 cells per 60-mm dish, 2×10^5 cells per 6-well plates, and 1×10^5 cells per 24-well plates) overnight prior to treatment or transfection.
Cells were stained with 3-(4,5-dimethylthiazol-2-O-2,5-diphenyltetrazolium bromide (MTT, Sigma-Aldrich, St. Louis, Mo.) and measured at 570 nm with Microplate Reader (Biotek, Winooski, Vt.).

[9] = system: retinoic acid receptor beta (RARβ); assay: RARB expression in HCT116 cells (qRT-PCR); assay type: cell-based; details: 24 hours, RA 10 μM, butyrate 5 mM, SAHA 5 μM
Procedure: as §2

[10] = system: Class I (HDAC1, 2, 3, and 8) and Class IIa (HDAC4, 5, 7, and 9); details: cited from earlier work
[11] = system: Gpr41, Gpr43, Gpr109a, Pgc1α, Pepck, Fas; assay: Ileal and hepatic mRNA levels in mice after oral gavage; assay type: in vivo, C57BL/6 mice; details: RA 15 mg/kg and/or butyrate 500 mg/kg, oral gavage every other day for one week

SMILES | miR-22 induction (miR-22 [1]) | miR-22 induction (miR-22 [1]; listed as chenodeoxycholic acid) | CYCLIN A2 levels [2] | CYCLIN A2 levels [3] | miR-22 expression level (miR-22 [4]) | Induction and localization of NUR77 and RARβ (immunostaining) (NUR77 and RARβ [5]) | H3K9 acetylation of NUR77 and RARβ genes (ChIP-qPCR) (RARB and NUR77 genes) | Recruitment of HDAC1, HDAC4, and SIRT1 to the regulatory region of NUR77 and RARβ (ChIP-qPCR) (RARB and NUR77 genes) | Histone acetylation (H3K9Ac) in the gene encoding RARβ (ChIP-qPCR) (RARB and NUR77 genes) | Recruitment of HDAC4 and SIRT1 to the RARB gene (ChIP-qPCR) (RARB and NUR77 genes) | Protein levels of HDAC1, HDAC4, SIRT1, and cyclin A2 (CCNA2) [6] | Increase of RARβ binding to the DR5 motif upstream of RARβ and CYP26A1 genes (RARβ) [folds] | Acetylated NUR77 and RARβ (NUR77 and RARβ [7]) | NUR77 binding to BRE and CCND2 promoter regions and their mRNA levels (NUR77 transcriptional activity) (NUR77) | Cell viability (MTT assay) [8] | Cell viability [8] | RARB (RARβ) expression / transcription [9] | Inhibition of HDAC classes [10] | Expression of Gpr41 and Gpr43 [11] | Expression of Gpr109a [11]
C[C@H](CCC(=O)O)[C@H]1CC[C@H]2[C@@H]3[C@H](O)C[C@@H]4C[C@H](O)CC[C@]4(C)[C@H]3CC[C@]12C [CDCA, chenodeoxycholic acid] | induces miR-22 | induce miR-22 | reduced CYCLIN A2 levels; also recorded: repression of cyclin A2 | reduced CYCLIN A2 levels; also recorded: repression of cyclin A2 | – | – | – | – | – | – | – | – | – | – | – | – | – | – | – | –
O=C(CCCCCCC(=O)Nc1ccccc1)NO [SAHA, suberanilohydroxamic acid] | – | – | – | – | upregulated; also recorded: could induce miR-22; also recorded: induced; also recorded: increased miR-22 level | markedly induced NUR77 and RARβ | increased H3K9 acetylation | decreased recruitment of HDAC1, HDAC4, and SIRT1 | increased histone acetylation | reduced the recruitment of HDAC4 and SIRT1 | reduced HDAC1, HDAC4, SIRT1, and CCNA2 protein levels | 2.5 | increased acetylated NUR77 and RARβ | reduced NUR77 binding | reduced cell viability | significantly reduced cell viability; also recorded: Markedly reduced cell viability | upregulated | – | – | –
CCCC(=O)[O-].[Na+] [butyrate, sodium butyrate] | – | – | – | – | upregulated; also recorded: induce miR-22; also recorded: induced; also recorded: increased miR-22 level | markedly induced NUR77 and RARβ | increased H3K9 acetylation | decreased recruitment of HDAC1, HDAC4, and SIRT1 | increased histone acetylation | reduced the recruitment of HDAC4 and SIRT1; also recorded: decreased the recruitment of HDAC4 and SIRT1 | reduced HDAC1, HDAC4, SIRT1, and CCNA2 protein levels | 4 | only increased acetylated NUR77 | reduced NUR77 binding | reduced cell viability | Markedly reduced cell viability | upregulated | inhibit Class I (HDAC1, 2, 3, and 8) and Class IIa (HDAC4, 5, 7, and 9) | could induce the expression | induced Gpr109a
CCC(=O)[O-].[Na+] [propionate, sodium propionate] | – | – | – | – | induced; also recorded: increased miR-22 level | – | – | – | – | – | – | – | – | – | – | Markedly reduced cell viability | – | – | – | –
